{"source": "patent US20100292229A1", "about": "“TRYPHOSTIN-ANALOGS FOR THE TREATMENT OF CELL PROLIFERATIVE DISEASES” (The Board of Regents of the University of Texas System, priority 2006, published 2010)", "key": {"[1]": {"system": "BV-173R cells (T315I BCR-ABL)", "assay": "MTT assay after 72 h, BV-173R cells", "type": "cell-based, human", "conditions": "72 h of drug incubation"}, "[2]": {"system": "Normal dermal human fibroblasts (NDF)", "assay": "Growth/survival and MTT assay of normal dermal fibroblasts", "type": "cell-based", "description": "Normal dermal human fibroblasts were treated for 1 h at 5 μM Degrasyn before cells were rinsed and cultured in normal growth media for 72 h. Control and treated cells were photographed after 72 h. […] An MTT assay was performed with NDF and A375 cells under these conditions (1 h treatment, 72 h incubation) to estimate the IC50 distinctions between these populations.\nMTT (viability) assay. MTT reagent (20 μl of 5 mg/ml stock solution, Sigma) is added to the cells and the plates are incubated at 37° C. for another 2 h. Cells are lysed by adding 100 μl of lysis buffer (20% SDS in 50% N,N-dimethylformamide (Sigma) adjusted to pH 4.7 by 80% acetic acid and 1 M HCl such that the final concentration of acetic acid is 2.5% and HCl is 2.5%) into each well and incubated for 6 h. The OD570 of each sample is determined by using a SPECTRA MAX M2 plate reader (Molecular Devices). The OD in control and treated wells is used as an estimate of the effect of compounds on cell growth and survival.\nCell lines. […] A375 melanoma cells were grown and maintained in the same media. […]"}, "Stat3": {"system": "Stat3", "assay": "IL-6 stimulated Stat3 activation (pY-Stat3) immunoblot in MM-1 cells", "type": "cell-based", "description": "Left: MM-1 cells were pretreated with Degrasyn (5 μM WP1130) for 2 h before incubation with IL-6 (10 ng/ml) for 15 min. Cell lysates were prepared and assessed for Stat3 activation (pY-Stat3) and protein levels (Stat3) by immunoblotting. Actin was used as a control for protein loading.\nLeft: MM-1 cells were pretreated with buffer alone (−), AG490 (50 μM) or Degrasyn (5 μM) for 2 h before incubation with IL-6 for 15 min. Cell lysates were prepared and Jak2 was immunoprecipitated and immunoblotted with anti-Jak2 (top). Cell lysates (50 μg) were immunoblotted for pY-Stat3, Stat3 or actin.\nWestern Blot analysis. Cells were harvested, washed twice in cold 1×PBS and lysed in modified RIPA lysis buffer (150 mM NaCl, 1% NP-40, 0.5% Na-deoxycholate [DOC], 0.1% Na-dodecyl sulfate [SDS], 50 mM Tris-HCl (pH 7.5), 1 mM EDTA, 1 mM NaF, 2 mM Na-vanadate, with protease inhibitors (1 mM PMSF, 1 mM benzamidine, 10 μg/ml aprotinin, 10 μg/ml leupeptin) on ice for 30 min. The lysed cells were centrifuged at 13,000 rpm for 30 min and the supernatant collected. The protein concentration of the cell lysate was determined by the Bradford Protein Assay. Fifty to 60 μg of protein were resolved in a 10% SDS-PAGE, and transferred to a PVDF membrane. […]"}, "w/t BCR-ABL": {"target": "T1, w/t BCR-ABL (Homo sapiens, UniProt P00519)", "T1 construct": "BV-173, a lymphoid CML cell line expressing w/t BCR-ABL; endogenous in cells; host or cells: BV-173; the other entry of the earlier key: BCR (P11274, Breakpoint cluster region protein)", "T1 sequence (P00519 with tags, fused parts or gaps)": "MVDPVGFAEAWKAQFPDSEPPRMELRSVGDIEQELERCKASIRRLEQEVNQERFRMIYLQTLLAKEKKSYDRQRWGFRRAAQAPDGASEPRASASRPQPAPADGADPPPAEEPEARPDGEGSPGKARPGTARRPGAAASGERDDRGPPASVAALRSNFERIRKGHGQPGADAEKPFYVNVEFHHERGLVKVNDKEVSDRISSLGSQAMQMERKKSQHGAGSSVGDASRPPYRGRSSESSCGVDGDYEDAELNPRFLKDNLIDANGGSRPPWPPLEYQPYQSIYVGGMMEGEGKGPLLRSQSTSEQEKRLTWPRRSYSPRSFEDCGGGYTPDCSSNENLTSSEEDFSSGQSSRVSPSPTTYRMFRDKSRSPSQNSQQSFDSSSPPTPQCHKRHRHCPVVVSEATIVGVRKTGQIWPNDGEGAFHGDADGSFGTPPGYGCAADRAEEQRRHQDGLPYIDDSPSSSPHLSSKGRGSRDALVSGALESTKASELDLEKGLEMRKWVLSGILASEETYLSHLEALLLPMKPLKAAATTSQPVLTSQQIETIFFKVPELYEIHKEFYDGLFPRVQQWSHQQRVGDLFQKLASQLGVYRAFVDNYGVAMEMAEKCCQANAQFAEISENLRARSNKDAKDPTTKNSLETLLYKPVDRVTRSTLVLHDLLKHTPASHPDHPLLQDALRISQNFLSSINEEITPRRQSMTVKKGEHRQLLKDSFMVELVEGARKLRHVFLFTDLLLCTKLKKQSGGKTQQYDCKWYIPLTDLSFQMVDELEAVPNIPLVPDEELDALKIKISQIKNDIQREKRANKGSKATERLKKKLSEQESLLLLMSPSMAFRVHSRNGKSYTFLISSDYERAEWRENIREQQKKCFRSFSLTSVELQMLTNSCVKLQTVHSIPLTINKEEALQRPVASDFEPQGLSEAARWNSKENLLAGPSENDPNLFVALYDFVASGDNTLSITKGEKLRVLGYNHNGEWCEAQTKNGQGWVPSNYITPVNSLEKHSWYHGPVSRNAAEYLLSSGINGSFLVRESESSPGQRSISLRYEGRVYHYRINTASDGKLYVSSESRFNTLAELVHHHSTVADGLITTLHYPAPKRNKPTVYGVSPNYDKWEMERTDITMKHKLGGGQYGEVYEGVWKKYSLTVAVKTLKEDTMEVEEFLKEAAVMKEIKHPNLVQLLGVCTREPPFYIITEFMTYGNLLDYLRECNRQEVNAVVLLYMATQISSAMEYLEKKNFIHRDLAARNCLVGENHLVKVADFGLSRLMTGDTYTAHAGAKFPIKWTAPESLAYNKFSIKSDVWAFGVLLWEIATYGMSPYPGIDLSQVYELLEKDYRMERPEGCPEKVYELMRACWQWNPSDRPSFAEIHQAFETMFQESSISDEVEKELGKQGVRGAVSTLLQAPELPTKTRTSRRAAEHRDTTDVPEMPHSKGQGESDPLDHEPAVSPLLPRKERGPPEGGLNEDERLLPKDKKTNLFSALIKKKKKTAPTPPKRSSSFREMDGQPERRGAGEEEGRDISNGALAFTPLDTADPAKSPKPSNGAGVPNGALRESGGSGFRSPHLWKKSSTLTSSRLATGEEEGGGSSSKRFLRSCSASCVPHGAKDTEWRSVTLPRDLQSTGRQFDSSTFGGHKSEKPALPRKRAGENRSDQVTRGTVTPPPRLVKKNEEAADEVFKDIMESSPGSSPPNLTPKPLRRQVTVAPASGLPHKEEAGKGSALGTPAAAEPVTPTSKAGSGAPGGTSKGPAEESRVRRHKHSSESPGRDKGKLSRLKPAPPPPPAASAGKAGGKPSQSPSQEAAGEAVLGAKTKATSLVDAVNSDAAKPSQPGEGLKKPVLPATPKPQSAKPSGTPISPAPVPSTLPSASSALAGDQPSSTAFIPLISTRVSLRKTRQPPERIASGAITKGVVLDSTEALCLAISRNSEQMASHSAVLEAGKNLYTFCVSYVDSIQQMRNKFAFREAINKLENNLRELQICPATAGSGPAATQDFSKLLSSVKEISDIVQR", "assay": "pBCR-ABL and BCR-ABL immunoblot in BV-173 cells", "type": "cell-based", "design": "dose or concentration left out as unconfirmed", "conditions": "1 h", "description": "Actin was probed as protein loading control.\nWestern Blot analysis. […] Western blotting was performed using specific primary antibodies Peroxidase-conjugated affiniPure anti-Mouse Anti-Rabbit secondary antibodies (Jackson Immunoresearch Laboratories, West Grove, Pa.). The proteins were visualized with ECL Plus reagents (Amersham Biosciences)."}, "[3]": {"system": "CML cells expressing the T315I mutant BCR-ABL", "assay": "Clonal outgrowth of CML cells from imatinib resistant patients", "type": "cell-based, human", "conditions": "cells of 2 patients that failed imatinib therapy", "description": "Isolation of cellular fractions from clinical specimens. Mononuclear cells were isolated from peripheral blood or bone marrow of imatinib-resistant CML patients after informed consent was obtained for a protocol reviewed and approved by the Institutional Review Board of M.D. Anderson Cancer Center. Cells were purified on Ficoll-Hypaque gradients."}, "[4]": {"system": "c-myc and activated Stat3", "assay": "c-myc, pY-Stat3, Stat3, p53, p-MAPK immunoblot in A375 melanoma cells", "type": "cell-based", "conditions": "A375, 2 h", "description": "A375 melanoma cells were pretreated with Degrasyn at the concentration noted for 2 h before the addition of 10 ng/ml IL-6 for 15 min. Cell lysates were prepared and equal protein aliquots were resolved by SDS-PAGE and immunoblotted for c-myc, p53 (wild-type), activated Stat3 (pY-Stat3), Stat3 and activated Erk1/2 kinase (p-MAPK).\n(§1) Western Blot analysis. Cells were harvested, washed twice in cold 1×PBS and lysed in modified RIPA lysis buffer (150 mM NaCl, 1% NP-40, 0.5% Na-deoxycholate [DOC], 0.1% Na-dodecyl sulfate [SDS], 50 mM Tris-HCl (pH 7.5), 1 mM EDTA, 1 mM NaF, 2 mM Na-vanadate, with protease inhibitors (1 mM PMSF, 1 mM benzamidine, 10 μg/ml aprotinin, 10 μg/ml leupeptin) on ice for 30 min. The lysed cells were centrifuged at 13,000 rpm for 30 min and the supernatant collected. The protein concentration of the cell lysate was determined by the Bradford Protein Assay. Fifty to 60 μg of protein were resolved in a 10% SDS-PAGE, and transferred to a PVDF membrane. Western blotting was performed using specific primary antibodies Peroxidase-conjugated affiniPure anti-Mouse Anti-Rabbit secondary antibodies (Jackson Immunoresearch Laboratories, West Grove, Pa.). The proteins were visualized with ECL Plus reagents (Amersham Biosciences)."}, "c-myc": {"target": "T2, c-myc (Homo sapiens, UniProt P01106)", "T2 construct": "endogenous in cells; host or cells: MM-1 cells", "T2 sequence (P01106 16-454 limits assumed)": "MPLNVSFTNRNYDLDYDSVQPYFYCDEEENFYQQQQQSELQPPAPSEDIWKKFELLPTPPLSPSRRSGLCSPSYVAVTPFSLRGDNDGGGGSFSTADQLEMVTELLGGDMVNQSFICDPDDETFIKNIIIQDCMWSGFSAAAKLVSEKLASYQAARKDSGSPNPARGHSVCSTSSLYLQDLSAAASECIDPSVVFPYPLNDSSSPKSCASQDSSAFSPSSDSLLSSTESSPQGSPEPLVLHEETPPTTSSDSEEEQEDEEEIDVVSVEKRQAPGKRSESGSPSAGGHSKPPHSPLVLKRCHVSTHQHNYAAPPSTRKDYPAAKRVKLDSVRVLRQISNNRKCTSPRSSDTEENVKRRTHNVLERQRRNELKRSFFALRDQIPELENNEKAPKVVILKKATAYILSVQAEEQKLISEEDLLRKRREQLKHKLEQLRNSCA", "assay": "c-myc protein immunoblot in MM-1 cells", "type": "cell-based", "description": "Top: MM-1 cells were incubated with 5 μM Degrasyn for the interval noted before cell lysates were prepared and subjected to immunoblotting for c-myc and actin as a protein loading control.\nMiddle: MM-1 cells were treated with the indicated concentration of Degrasyn for 1 h before lysates were immunoblotted for c-myc and actin.\nBottom: MM-1 cells were treated as indicated before extraction of total RNA (TRIzol). RNA was resolved by agarose electrophoresis, transferred to a membrane and hybridized with a c-myc probe to determine the level of c-myc RNA in each sample. The ethidium bromide stained gel was photographed and 28S RNA content was detected as a measure of RNA content in each lane.\nMM-1 cells were pretreated with protease/proteosome inhibitors (LLnL; LLnM; E-64d; MG132; PS341; Chloroquine; Ammonium Chloride; Cycloheximide) for 2 h before the addition of 5 μM Degrasyn or vehicle alone (DMSO as indicated) for an additional 2 h. Cell lysates were prepared and equal protein aliquots were subjected to immunoblotting for c-myc, Max (a c-myc binding partner) or actin as a protein loading control.\nPictured: MM-1 cells were treated with biotinylated Degrasyn (Bio-Deg) or Degrasyn (at the indicated concentration) for 1 h before analyzing effects on c-myc as described in FIG. 15.\nas §1"}}}
{"smiles": "CCC[C@H](NC(=O)/C(C#N)=C/c1cccc(Br)n1)c1ccccc1", "note": "[Degrasyn]", "values": [{"measurement": "Activity in MTT assay, BV-173R vs BV-173", "setting": "[1]", "value": "equally active against both cell types"}, {"measurement": "Growth or survival of normal dermal fibroblasts", "setting": "[2]; 5 μM for 1 h, then 72 h in normal growth media", "value": "did not affect the growth or survival of NDFs"}, {"measurement": "Activity against melanoma tumors relative to normal dermal fibroblast", "setting": "[2]; A375 vs NDF, MTT, 1 h treatment, 72 h incubation", "value": "> 5", "unit": "fold"}, {"measurement": "Stat3 activation (pY-Stat3)", "setting": "Stat3; 5 μM, 2 h pretreatment, IL-6 10 ng/ml 15 min", "value": "blocked Stat3 activation"}, {"measurement": "Stat3 activation compared with AG490", "setting": "Stat3; Degrasyn 5 μM vs AG490 50 μM, 2 h, IL-6 15 min", "value": "reduces Stat3 activation more effectively than 10-fold greater concentrations of AG490"}, {"measurement": "pBCR-ABL and BCR-ABL protein levels, BV-173", "setting": "w/t BCR-ABL", "value": "reduced BCR-ABL protein levels in both w/t and mutant BCR-ABL expressing cells"}, {"measurement": "Colony formation of leukemic cells", "setting": "[3]", "value": "more effective than imatinib in suppressing colony formation"}, {"measurement": "c-myc protein levels and Stat3 activation", "setting": "[4]; then IL-6 10 ng/ml 15 min", "value": "reduced c-myc protein levels suppressed Stat3 activation at higher concentrations"}, {"measurement": "Stat3, p-MAPK and p53 levels", "setting": "[4]; then IL-6 15 min", "value": "not affected"}, {"measurement": "c-myc protein content and c-myc RNA", "setting": "c-myc", "value": "reduces c-myc protein content without effecting c-myc gene expression"}, {"measurement": "c-myc protein, time course", "setting": "c-myc; 5 μM", "value": "caused a rapid reduction of c-myc protein"}, {"measurement": "c-myc protein, concentration dependence", "setting": "c-myc; 1 h", "value": "caused a concentration dependent reduction in c-myc protein levels"}, {"measurement": "c-myc protein levels", "setting": "c-myc; FIG. 21, 1 h", "value": "reduced c-myc protein levels"}]}
